Test results reported in patent US12421240B2, “Hydropyrazino[1,2-d][1,4]diazepine compounds for the treatment of autoimmune disease” (Hoffmann-La Roche Inc., priority 2019, dated 2025).

Biological target: T1, human TLR7 (Homo sapiens, UniProt Q9NYK1)
T1 sequence (Q9NYK1 27-1049): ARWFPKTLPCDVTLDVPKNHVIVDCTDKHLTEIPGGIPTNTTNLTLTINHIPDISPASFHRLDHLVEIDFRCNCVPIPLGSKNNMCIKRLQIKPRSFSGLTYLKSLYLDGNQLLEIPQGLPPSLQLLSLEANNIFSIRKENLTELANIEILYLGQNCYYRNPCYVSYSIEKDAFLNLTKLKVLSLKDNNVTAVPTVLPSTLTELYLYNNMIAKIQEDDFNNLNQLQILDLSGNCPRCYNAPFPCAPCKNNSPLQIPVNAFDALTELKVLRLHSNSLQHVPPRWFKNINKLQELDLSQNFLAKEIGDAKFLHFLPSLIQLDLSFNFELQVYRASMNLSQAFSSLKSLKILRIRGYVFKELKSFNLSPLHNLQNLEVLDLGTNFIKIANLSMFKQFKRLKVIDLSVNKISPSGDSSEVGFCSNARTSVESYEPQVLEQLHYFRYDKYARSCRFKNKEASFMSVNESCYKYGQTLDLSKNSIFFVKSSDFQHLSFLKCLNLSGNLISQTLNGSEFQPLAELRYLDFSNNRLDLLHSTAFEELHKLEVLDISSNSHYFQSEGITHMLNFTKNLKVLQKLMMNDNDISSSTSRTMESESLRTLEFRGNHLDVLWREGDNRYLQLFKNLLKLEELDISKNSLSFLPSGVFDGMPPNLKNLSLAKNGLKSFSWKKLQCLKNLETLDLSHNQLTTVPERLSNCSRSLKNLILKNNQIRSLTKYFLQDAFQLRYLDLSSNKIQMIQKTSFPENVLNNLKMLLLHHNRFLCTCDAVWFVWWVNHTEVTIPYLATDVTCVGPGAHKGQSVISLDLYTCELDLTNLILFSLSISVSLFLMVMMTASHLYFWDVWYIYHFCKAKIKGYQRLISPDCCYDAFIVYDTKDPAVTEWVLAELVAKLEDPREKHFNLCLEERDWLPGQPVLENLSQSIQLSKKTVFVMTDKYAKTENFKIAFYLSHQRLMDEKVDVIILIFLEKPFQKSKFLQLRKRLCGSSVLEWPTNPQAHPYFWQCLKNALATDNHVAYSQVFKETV
Experiment: HEK293-Blue-hTLR-7 cells assay (SEAP reporter, R848 stimulation)
Type: cell-based
Details: HEK293-Blue-hTLR7 cells, R848 ligand, 20 hrs; read-out: HEK/hTLR7 IC50
Protocol: The following tests were carried out in order to determine the activity of the compounds of formula (I), (Ia) or (Ib) in HEK293-Blue-hTLR-7/8/9 cells assay.
HEK293-Blue-hTLR-7 Cells Assay:
A stable HEK293-Blue-hTLR-7 cell line was purchased from InvivoGen (Cat. #: hkb-htlr7, San Diego, California, USA). These cells were originally designed for studying the stimulation of human TLR7 by monitoring the activation of NF-κB. A SEAP (secreted embryonic alkaline phosphatase) reporter gene was placed under the control of the IFN-β minimal promoter fused to five NF-κB and AP-1-binding sites. The SEAP was induced by activating NF-κB and AP-1 via stimulating HEK-Blue hTLR7 cells with TLR7 ligands. Therefore the reporter expression was declined by TLR7 antagonist under the stimulation of a ligand, such as R848 (Resiquimod), for incubation of 20 hrs. The cell culture supernatant SEAP reporter activity was determined using QUANTI-Blue™ kit (Cat. #: rep-qb1, Invivogen, San Diego, Ca., USA) at a wavelength of 640 nm, a detection medium that turns purple or blue in the presence of alkaline phosphatase.
HEK293-Blue-hTLR7 cells were incubated at a density of 250,000-450,000 cells/mL in a volume of 170 μL in a 96-well plate in Dulbecco's Modified Eagle's medium (DMEM) containing 4.5 g/L glucose, 50 U/mL penicillin, […], […], 2 mM L-glutamine, 10% (v/v) heat-inactivated fetal bovine serum with addition of 20 μL test compound in a serial dilution in the presence of final DMSO at 1% and 10 μL of 20 uM R848 in above DMEM, perform incubation under 37° C. in a CO2 incubator for 20 hrs. Then 20 μL of the supernatant from each well was incubated with 180 μL Quanti-blue substrate solution at 37° C. for 2 hrs and the absorbance was read at 620655 nm using a spectrophotometer. The signaling pathway that TLR7 activation leads to downstream NF-κB activation has been widely accepted, and therefore similar reporter assay was modified for evaluating TLR7 antagonist.

| Compound | IC50 |
| --- | --- |
| C[C@@H]1CN(c2ccc(C#N)c3ncccc23)C[C@@H]2CCN(Cc3cc4c(cn3)CCNC4)CCN21 [Example 9, 5-[(4R,10aS)-4-methyl-8-(5,6,7,8-tetrahydro-2,6-naphthyridin-3-ylmethyl)-1,3,4,6,7,9,10,10a-octahydropyrazino[1,2-d][1,4]diazepin-2-yl]quinoline-8-carbonitrile] | 8.2 nM |
| C[C@@H]1CN(c2ccc(C#N)c3ncccc23)C[C@@H]2CCN(Cc3ccc(N4CCOC[C@H](N)C4)cn3)CCN21 [Example 21, 5-[(4R,10aS)-8-[[5-[(6R)-6-amino-1,4-oxazepan-4-yl]-2-pyridyl]methyl]-4-methyl-1,3,4,6,7,9,10,10a-octahydropyrazino[1,2-d][1,4]diazepin-2-yl]quinoline-8-carbonitrile] | 59.9 nM |
| C[C@@H]1CN(c2ccc(C#N)c3ncccc23)C[C@@H]2CCN(Cc3ccc4c(c3)CNCC4)CCN21 [Example 12, 5-[(4R,10aS)-4-methyl-8-(1,2,3,4-tetrahydroisoquinolin-7-ylmethyl)-1,3,4,6,7,9,10,10a-octahydropyrazino[1,2-d][1,4]diazepin-2-yl]quinoline-8-carbonitrile] | 4.5 nM |
| C[C@@H]1CN(c2ccc(C#N)c3ncccc23)C[C@@H]2CCN(Cc3cccc(N4CCNCC4)n3)CCN21 [Example 18, 5-[(4R,10aS)-4-methyl-8-[(6-piperazin-1-yl-2-pyridyl)methyl]-1,3,4,6,7,9,10,10a-octahydropyrazino[1,2-d][1,4]diazepin-2-yl]quinoline-8-carbonitrile] | 12.1 nM |
| C[C@@H]1CN(c2ccc(C#N)c3ncccc23)C[C@@H]2CCN(Cc3ncc(N4CCNCC4)cn3)CCN21 [Example 13, 5-[(4R,10aS)-4-methyl-8-[(5-piperazin-1-ylpyrimidin-2-yl)methyl]-1,3,4,6,7,9,10,10a-octahydropyrazino[1,2-d][1,4]diazepin-2-yl]quinoline-8-carbonitrile] | 49.6 nM |
| C[C@@H]1CN(c2ccc(C#N)c3ncccc23)C[C@@H]2CCN(c3cc4c(cn3)CNCC4)CCN21 [Example 7, 5-[(4R,10aS)-4-methyl-8-(5,6,7,8-tetrahydro-2,7-naphthyridin-3-yl)-1,3,4,6,7,9,10,10a-octahydropyrazino[1,2-d][1,4]diazepin-2-yl]quinoline-8-carbonitrile] | 61.3 nM |

The remaining lines, values ahead:

| IC50 | Compound |
| --- | --- |
| 8.5 nM | CO[C@@H]1CN(c2cnc(CN3CC[C@H]4CN(c5ccc(C#N)n6ncc(F)c56)C[C@@H](C)N4CC3)c(F)c2)C[C@H]1N [Example 27, 4-[(4R,10aS)-8-[[5-[(3R,4R)-3-amino-4-methoxy-pyrrolidin-1-yl]-3-fluoro-2-pyridyl]methyl]-4-methyl-1,3,4,6,7,9,10,10a-octahydropyrazino[1,2-d][1,4]diazepin-2-yl]-3-fluoro-pyrazolo[1,5-a]pyridine-7-carbonitrile] |
| 4.9 nM | CO[C@@H]1CN(c2ccc(CN3CC[C@H]4CN(c5ccc(C#N)c6ncccc56)C[C@@H](C)N4CC3)nc2)C[C@H]1N [Example 22, 5-[(4R,10aS)-8-[[5-[(3R,4R)-3-amino-4-methoxy-pyrrolidin-1-yl]-2-pyridyl]methyl]-4-methyl-1,3,4,6,7,9,10,10a-octahydropyrazino[1,2-d][1,4]diazepin-2-yl]quinoline-8-carbonitrile] |
| 3.2 nM | CO[C@@H]1CN(c2cnc(CN3CC[C@H]4CN(c5ccc(C#N)c6ncccc56)C[C@@H](C)N4CC3)c(F)c2)C[C@H]1N [Example 24, 5-[(4R,10aS)-8-[[5-[(3R,4R)-3-amino-4-methoxy-pyrrolidin-1-yl]-3-fluoro-2-pyridyl]methyl]-4-methyl-1,3,4,6,7,9,10,10a-octahydropyrazino[1,2-d][1,4]diazepin-2-yl]quinoline-8-carbonitrile] |
